The values that follow come from patent publication EP4335840A1, “NEW CONTRAST AGENTS FOR USE IN DIAGNOSTIC IMAGING” (priority 2022, dated 2024).

By Solubility is commonly meant the concentration that dissolves in the medium under given conditions. By NOAEL is commonly meant the highest dose or exposure tested at which no adverse effect was seen.

Each structure is given as a SMILES string.

Series [1] is described as follows: Water solubility in aqueous buffer. Particulars: aqueous buffer 10 mM Tris-HCl, pH 7.4, 20°C; Gd by ICP-MS. Type of series: physicochemical. The method, then: The exploratory water solubility of the compounds is determined at room temperature (20°C) in 0.5 mL buffer solution (10 mM Tris-HCI, pH 7.4) in the microcentrifuge tubes (Eppendorf, 2.0 mL safe-lock caps). The solid compounds were added stepwise to the buffer solution. More substance is added once all the suspended material is dissolved until an equilibrium between undissolved and dissolved substance is reached. The suspension was mixed using a shaker (Heidolph Reax 2000) and treated 5 min in an ultrasound bath (Bandelin, Sonorex Super RK255H). The Gadolinium concentration of the test substance in the clear solution is measured by ICP-MS. Table 1: Solubilities of compounds in aqueous buffer at 20°C (pH 7.4).

A short description of series [2]: Relaxivity measurements at 1.41 T in water and human plasma. Type of series: physicochemical. The settings on record: 37°C, normalized to Gd. The method, then:
Relaxivity measurements at 1.41 T were performed using a MiniSpec mq60 spectrometer (Bruker Analytik, Karlsruhe, Germany) operating at a resonance frequency of 60 MHz and a temperature of 37°C. The T1 relaxation times were determined using the standard inversion recovery (IR) method with a fixed relaxation delay of at least 5 × T1. The variable inversion time (TI) was calculated automatically by the standard software of the MiniSpec mq60 (8 steps). The T2 measurements were performed by using a Carr-Purcell-Meiboom-Gill (CPMG) pulse sequence, applying a relaxation delay of at least 5 × T1.
Each relaxivity measurement was performed using three different Gd concentrations (3 concentrations between 0.05 and 2 mM). The T1 and T2 relaxation times of the example compounds 1 to 10 were measured in different media for example in water and human plasma. Human plasma preparation: For each experiment fresh blood was taken from a volunteer using 10 mL citrate-tubes (Sarstedt S-Monovette 02.1067.001, 10 mL, Citrate). The 10 mL citrate-tubes were carefully inverted 10 times to mix blood and anticoagulant and centrifuged for 15min at 1811 g at RT (Eppendorf, Centrifuge 5810R).
The relaxivities ri (where i=1, 2) were calculated based on the measured relaxation rates Ri in water and plasma: ri = (Ri−Ri(0))/CGd [formula] where Ri(0) represent the relaxation rate of the respective solvent and CGd the concentration of the compound normalized to the Gadolinium. The Gadolinium concentrations of the investigated solutions were verified by Inductively Coupled Plasma Mass Spectrometry (ICP-MS Agilent 7500a, Waldbronn, Germany). Table 3: Relaxivities of investigated compounds in water and human plasma at 1.41 T and relaxivities of Reference compounds 1-3 (RC1-RC3) at 1.5 T in water and bovine plasma. All values are measured at 37°C and normalized to Gd and given in L mmol-1 s-1.

The target in a further series is T1, OATP1B1 (Homo sapiens, UniProt Q9Y6L6).
T1 sequence (Q9Y6L6 1-691): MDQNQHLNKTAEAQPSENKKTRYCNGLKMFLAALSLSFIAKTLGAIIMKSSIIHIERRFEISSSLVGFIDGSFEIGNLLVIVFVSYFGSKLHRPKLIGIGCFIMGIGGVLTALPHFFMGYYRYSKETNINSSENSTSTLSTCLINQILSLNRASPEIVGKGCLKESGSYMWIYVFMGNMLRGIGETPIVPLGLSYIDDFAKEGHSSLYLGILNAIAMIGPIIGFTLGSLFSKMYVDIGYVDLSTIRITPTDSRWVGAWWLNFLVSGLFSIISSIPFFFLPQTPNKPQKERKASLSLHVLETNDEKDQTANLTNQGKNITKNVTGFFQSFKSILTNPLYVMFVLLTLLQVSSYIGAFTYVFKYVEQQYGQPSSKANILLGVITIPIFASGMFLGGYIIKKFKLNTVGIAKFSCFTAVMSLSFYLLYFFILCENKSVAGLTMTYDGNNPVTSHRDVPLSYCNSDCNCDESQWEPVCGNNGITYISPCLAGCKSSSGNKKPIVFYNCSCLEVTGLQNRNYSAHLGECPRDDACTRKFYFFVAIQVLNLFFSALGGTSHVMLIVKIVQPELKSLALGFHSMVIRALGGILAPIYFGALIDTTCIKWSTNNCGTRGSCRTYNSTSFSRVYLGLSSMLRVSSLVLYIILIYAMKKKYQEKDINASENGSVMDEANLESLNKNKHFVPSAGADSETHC
Kind of series: Uptake into stable transfected OATP1B1 HEK 293 cells. Type of series: cell-based. The settings on record: OATP1B1-HEK 293 cell uptake with Rifampicine.

The target in another series is T2, OATP1B3 (Homo sapiens, UniProt Q9NPD5).
T2 sequence (Q9NPD5 1-702): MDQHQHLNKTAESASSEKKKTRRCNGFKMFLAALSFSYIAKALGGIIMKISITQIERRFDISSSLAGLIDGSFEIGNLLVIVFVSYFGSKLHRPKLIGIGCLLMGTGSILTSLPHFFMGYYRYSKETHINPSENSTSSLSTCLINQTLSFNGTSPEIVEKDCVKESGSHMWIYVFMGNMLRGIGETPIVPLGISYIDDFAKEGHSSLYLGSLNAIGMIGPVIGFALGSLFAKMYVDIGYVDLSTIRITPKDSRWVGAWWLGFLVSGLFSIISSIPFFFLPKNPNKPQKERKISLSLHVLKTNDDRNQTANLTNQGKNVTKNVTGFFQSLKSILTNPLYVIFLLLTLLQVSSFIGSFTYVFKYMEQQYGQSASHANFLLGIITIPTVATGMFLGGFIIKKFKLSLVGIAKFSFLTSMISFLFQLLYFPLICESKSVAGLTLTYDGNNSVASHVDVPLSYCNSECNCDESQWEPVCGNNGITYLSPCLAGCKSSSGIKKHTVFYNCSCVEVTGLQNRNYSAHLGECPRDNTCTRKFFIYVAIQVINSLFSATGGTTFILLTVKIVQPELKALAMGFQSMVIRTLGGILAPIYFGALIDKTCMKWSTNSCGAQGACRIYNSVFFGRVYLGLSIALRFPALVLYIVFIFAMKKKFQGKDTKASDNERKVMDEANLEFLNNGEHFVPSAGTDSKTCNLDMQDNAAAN
The series is described as follows: Uptake into stable transfected OATP1B3 HEK 293 cells. Type of series: cell-based. Particulars: OATP1B3-HEK 293 cell uptake with Rifampicine.

Series [3] has as its system freshly isolated rat hepatocytes. Kind of series: Uptake into freshly isolated rat hepatocytes. Particulars: rat hepatocyte uptake with OATP1B1/1B3 inhibitor Rifampicine, test item and inhibitor each 100 µM.
Description: The rat hepatocytes were incubated (2.5 ·10^5 cells/well) for 2.5 to 4h in collagen coated 24-well plates (Fa. Beckton Dickinson Biocoat, cell environments, Collagen I Cellware) in Williams E-medium (Fa. Sigma W1878) in an incubator (37°C, 5% CO2 and 95% oxygen). After incubation the adherent hepatocytes were washed once with 37°C Hepes carbonate transport buffer (500 µL/well). The test items and RC1 were prepared from stock solutions (180 to 500 mM concentration) in Hepes carbonate transport buffer at pH 7.4 to reach a final concentration of 100 µmοl Gd/L. The specific uptake of the test item or RC1 into rat hepatocytes via OATP1 B1 and OATP1 B3 was challenged using a known OATP1B1/1B3 inhibitor (Rifampicine, Fa. Sigma R3501, test item and inhibitor 1:1 each 100 µM final concentration). The prepared rat hepatocyte plates were incubated with test solutions (500 µL/well) at 37°C for 10 min using a thermoshaker (Fa. Grant Bio, PHMP). Triplicates were performed for each test item. After incubating the cells were washed once with cold PBS buffer (Fa. Gibco, Dulbeccos PBS (+)). After washing the intact hepatocytes were lysed by addition of 500 µL cold 0.01 % Triton-X 100 in Millipore water for 1h. […] After 1h 500 µL of 10 nM Terbium ICP-MS standard was added in 2% nitric acid and 0.01% Triton 100 before the Gadolinium concentrations in the lysate were measured using ICP-MS (Agilent 8900, singleQuad, integr. Time 0.3 s, no gas, 5 replicates, Gd m/z 157, Tb m/z 159). As a reference standard RC1 is used in the same well plate. The hepatocyte uptake of the test compound is calculated relative to RC1 (resulting in the unit % of RC1).
The nature of series [4]: No-observed-adverse-effect level (NOAEL), intravenous bolus. Particulars: mice, intravenous bolus via tail vein, dose levels up to 2.5 mmol Gd/kg bw.
Series [5] is described as follows: Complex stability (transmetallation with Zn2+, proton relaxometry). Type of series: physicochemical. The settings on record: 72 hours, 2.5 mM Zn2+, 26 mM phosphate buffer, 37°C, pH 7.4; 1.41 T. The method, then:
The used method is described elsewhere (Laurent S et al., Stability of MRI paramagnetic contrast media: a proton relaxometric protocol for transmetallation assessment. Invest Radiol. 2001 Feb;36(2):115-22). In brief: A solution containing 2.5 mmol/L of test compound and 2.5 mmol/L ZnCl2 in 26 mM phosphate buffer (KH2PO4 Merck; 1.09439.1000, #HC748513, pH 7,00), was incubated at 37°C over a period of at least 3 days. If test compounds are instable under these conditions, transmetallation during this test would lead to the formation of the Zn^2+ complex of the test item, while Gd^3+ is released and precipitated as highly insoluble GdPO4.
After 3d of incubation T1 relaxation time was observed. […] Table 2: Transmetallation stability [%] of paramagnetic contrast agents over 72 hours (2.5 mM Zn2+, 26 mM phosphate buffer, 37°C, pH 7.4).

On to `CCOCCOc1ccc(C[C@H]2CN(CC(=O)[O-])CCN(CC(=O)[O-])CCN(CC(=O)O)CCN2CC(=O)[O-])cc1.[Gd+3]` [Example 4], for which the Solubility in series [1] is reported as > 0.738 mol/L. Also, in series [2], the r1 human plasma is 6.6 L/mmol/s. This compound also registered a r1 water in series [2] of 4.8 L/mmol/s. Further, the results for the “Inhibition Rifampicine” value (on OATP1B1; on OATP1B3; in series [3]) were 29 % inhibition, 97 % inhibition and 94 % inhibition, respectively. The compound further registered an NOAEL in series [4] of 2.50 mmol Gd/kg bw.

Take `CCOc1ccc(CC2CN(CC(=O)[O-])CCN(CC(=O)[O-])CCN(CC(=O)O)CCN2CC(=O)[O-])cc1.[Gd+3]` (stereo not drawn) [Example 7, Gadolinium-2,2',2"-[10-(carboxymethyl)-2-(4-ethoxybenzyl)-1,4,7,10-tetraazacyclododecane-1,4,7-triyl]triacetate]: the Solubility in series [1] is listed as > 0.403 mol/L. The “Stability (transmetallation stability, T1 relaxation rates R1n/R10)” value in series [5] was 98%. This compound returned a r1 human plasma in series [2] of 6.2 L/mmol/s. The compound further yielded a r1 water in series [2] of 4.5 L/mmol/s. For the same compound, the “Inhibition Rifampicine” value is recorded as 78 % inhibition on OATP1B1, 95 % inhibition on OATP1B3 and 96 % inhibition in series [3]. This compound also came in with an NOAEL in series [4] of 1.50 mmol Gd/kg bw.
